Assay results taken from patent US20240173333A1, “Treating Alagille Syndrome (ALGS)” (priority 2022, published 2024).
Entries after “also recorded” stand apart in the source; their conditions may differ. Marks after values point to notes of the source that are not given here.

What was measured:
[1] = test system: patients with Alagille syndrome (ALGS); experiment: ASSERT: fat-soluble vitamin levels, INR and related TEAEs; format: in vivo, human
Description: Vitamins A, D, E, and international normalized ratio (INR; surrogate for vitamin K) were measured throughout the study. Vitamins A, D, and E were measured at screening and randomization, week 12, and week 24. International normalized ratio (INR; surrogate for vitamin K) was measured at all visits. The following measures were determined: (i) percentage of patients with FSV insufficiency at baseline and week 24, and (ii) shifts from baseline to high or low post-baseline FSV values relative to normal ranges. Treatment-emergent adverse events (TEAEs) of FSV deficiency, TEAEs resulting from new or worsening FSV deficiency refractory to clinically recommended vitamin supplementation, and TEAEs represented any possible sequelae of FSV deficiency were evaluated.

[2] = test system: patients with Alagille syndrome (ALGS); experiment: ASSERT pruritus responders: caregiver-reported PedsQL
Source text: (§1) Treatment with concomitant medications for pruritus was permitted provided the patient was on a stable dosage for ≥4 weeks prior to enrollment that was maintained throughout the study.
(§2) Pruritus responders were defined as patients having a ≥1-point decrease in ObsRO scratching score from baseline to weeks 21-24).

[3] = test system: patients with Alagille syndrome (ALGS); experiment: ASSERT pruritus responders: ObsRO scratching score
Source text: as §1, §2

[4] = test system: patients with Alagille syndrome (ALGS); experiment: ASSERT: hepatic parameters, biochemical markers and markers of bile acid synthesis; format: in vivo, human
Source text: […] Additional secondary efficacy endpoints were as follows: • Change from baseline in pruritus to Month 6 (Weeks 21 to 24) as measured by the Albireo PRO instrument. • Percentage of patients achieving a clinically meaningful decrease in pruritus (pruritis responders) as measured by the ObsRO/PRO instruments. • Change from baseline through Week 24 in patient reported and observer reported itching and scratching severity scores, respectively, for the morning assessment and for the evening assessment; sleep parameters as measured with the Albireo ObsRO/PRO instruments (e.g., tiredness and number of awakenings); and PedsQL subdomain scores. • Assessment of Global Symptom Relief to from baseline to Weeks 4, 12, and 24 as measured by patient, caregiver, and clinician Global Impression of Symptoms GIS (PGIS, CaGIS, CGIS) items. • Change from baseline to Week 24 in xanthomatosis as assessed by the Clinician Xanthoma Scale; serum bile acid levels; serum ALT concentration; and serum AST concentration; gamma-glutamyl transferase concentration; total bilirubin concentration. • Change from baseline in biochemical markers and measures of bile acid synthesis (autotaxin, p-C4, only in patients >10 kg); and total cholesterol concentration.
Biochemical Markers and PK Samples. Blood samples for analysis of clinical chemistry were drawn during Screening Visits 1 and 2, as well as at randomization (Study Day 1), Week 4 to 24/EOT, and Safety Follow-up visits. As outlined in Table 1, total bilirubin, AST, ALT, and gamma glutamyl transferase assessments were included as part of the routine laboratory parameters. Blood samples for autotaxin and p-C4 were drawn at randomization (Study Day 1), Week 12, and Week 24/EOT, only for children with body weight >10 kg. Blood for odevixibat PK assessment was drawn at Week 4, Week 20, and EOT (only for children with body weight >10 kg). Samples were processed and transported to a laboratory per instructions in the laboratory manual.

[5] = baseline, before treatment, n=35
[6] = baseline, before treatment, patients >10 kg
[7] = week 24, 120 μg/kg/day, patients >10 kg

SMILES: CCCCC1(CCCC)CN(c2ccccc2)c2cc(SC)c(OCC(=O)N[C@@H](C(=O)N[C@@H](CC)C(=O)O)c3ccc(O)cc3)cc2S(=O)(=O)N1 [odevixibat, 1,1-dioxo-3,3-dibutyl-5-phenyl-7-methylthio-8-(N-{(R)-α-[N-((S)-1-carboxypropyl)carbamoyl]-4-hydroxybenzyl}carbamoylmethoxy)-2,3,4,5-tetrahydro-1,2,5-benzothiadiazepine]
- shifts to low levels of vitamin E in patients with normal or high baseline levels ([1]; 4/29): 14%
- shifts to low vitamin D levels in patients with normal or high baseline levels ([1]; 8/16): 50%
- shifts from low or normal INR at baseline to high INR (low vitamin K) ([1]; 12/30): 40%
- TEAE related to FSV levels: decreased vitamin A ([1]; 24 weeks): 1 n
- TEAE related to FSV levels: decreased vitamin E ([1]; 24 weeks): 1 n
- TEAE related to FSV levels: increased INR ([1]; 24 weeks): 1 n
- incidence of INR increased (possible sequela of FSV deficiency) ([1]; 24 weeks): 3%
- incidence of haematoma (possible sequela of FSV deficiency) ([1]; 24 weeks): 9%
- patients shifted to high INR based on the normal range ([1]; 24 weeks): 12 patients
- patients who shifted to high post-baseline INR and had TEAEs of potential sequelae of vitamin K deficiency ([1]; 24 weeks): 2 n
- patients with clinically meaningful INR shifts (INR >1.2) ([1]; 24 weeks): 6 patients
- shifts to low vitamin D levels ([1]; 24 weeks): 8 patients
- shifts to low vitamin E levels ([1]; 24 weeks): 4 patients
- incidence of possible sequelae of fat-soluble vitamin deficiency ([1]; 24 weeks, n=35): 14%
- patients with TEAEs related to FSV levels (any FSV deficiency-related TEAE) ([1]; 24 weeks, n=35): 9%
- fat-soluble vitamin deficiency TEAE refractory to clinically recommended vitamin supplementation ([1]; 24 weeks, vitamin D deficiency): 1 patients
- changes from baseline in mean vitamin (FSV) levels or INR ([1]; baseline to last assessment): No clinically meaningful changes; also recorded: no clinically relevant changes
- Vitamin A, shifts to low ([1]; baseline to lowest post-baseline value): 0/34
- patients shifted to low levels of vitamin A ([1]; during the study): No patients
- Any FSV deficiency-related TEAE ([1]; n=35): 3 (9)^a n (%)
- Any potential sequelae events ([1]; n=35): 5 (14) n (%)
- FSV deficiency-related TEAE: INR increased ([1]; n=35): 1 (3) n (%)
- FSV deficiency-related TEAE: Vitamin A decreased ([1]; n=35): 1 (3) n (%)
- FSV deficiency-related TEAE: Vitamin E decreased ([1]; n=35): 1 (3) n (%)
- Potential sequelae: Coagulopathy ([1]; n=35): 1 (3) n (%)
- Potential sequelae: Contusion ([1]; n=35): 1 (3) n (%)
- Potential sequelae: Epistaxis ([1]; n=35): 0 n (%)
- Potential sequelae: Hematemesis ([1]; n=35): 1 (3) n (%)
- Potential sequelae: Hematoma ([1]; n=35): 3 (9) n (%)
- Potential sequelae: INR increased ([1]; n=35): 1 (3) n (%)
- FSV deficiency-related TEAE: Vitamin D deficiency ([1]; n=35, refractory to supplementation): 1 (3)^b n (%)
- patients with FSV deficiency TEAE refractory to clinically recommended vitamin supplementation ([1]; of 35 patients): 3%
- PedsQL total score, Baseline Mean (SE) ([2]; n=24, range 0-100): 68 (3)
- PedsQL total score, Mean (SE) Change From Baseline ([2]; to week 24, n=23): 16 (4)^c
- PedsQL total score, Week 24 Mean (SE) ([2]; week 24, n=25): 83 (2)
- Scratching score, Mean (SE) Change From Baseline ([3]; baseline to weeks 21-24): −2.0 (0.1)
- Scratching score, Baseline Mean (SE) ([3]; n=28): 2.8 (0.1)
- Scratching score, Week 24 Mean (SE) ([3]; weeks 21-24, n=28): 0.9 (0.1)
- GGT, LS mean (SE) change from baseline to week 24 ([4]; 120 μg/kg/day, n=35): 100 (44) U/L
- Serum ALT, LS mean (SE) change from baseline to week 24 ([4]; 120 μg/kg/day, n=35): 66 (14) U/L
- Serum AST, LS mean (SE) change from baseline to week 24 ([4]; 120 μg/kg/day, n=35): 54 (15) U/L
- Total bilirubin, LS mean (SE) change from baseline to week 24 ([4]; 120 μg/kg/day, n=35): 1 (3) μmol/L
- Total cholesterol, LS mean (SE) change from baseline to week 24 ([4]; 120 μg/kg/day, n=35): −1 (1) mmol/L
- Autotaxin, Mean (SD) change from baseline to week 24 ([4]; 120 μg/kg/day, patients >10 kg): −414 (439) ng/mL
- C4, Mean (SD) change from baseline to week 24 ([4]; 120 μg/kg/day, patients >10 kg): 12 (12) ng/mL
- GGT, Mean (SD) at baseline [4, 5]: 366 (211) U/L
- Serum ALT, Mean (SD) at baseline [4, 5]: 186 (83) U/L
- Serum AST, Mean (SD) at baseline [4, 5]: 170 (81) U/L
- Total bilirubin, Mean (SD) at baseline [4, 5]: 52 (43) μmol/L
- Total cholesterol, Mean (SD) at baseline [4, 5]: 8 (2) mmol/L
- Autotaxin, Mean (SD) at baseline [4, 6]: 1846 (540) ng/mL
- C4, Mean (SD) at baseline [4, 6]: 6 (6) ng/mL
- patients with post-treatment changes in Total Bilirubin (≥3×BL) concurrently with ALT (≥2×BL) (Hy's Law / drug induced liver injury cases) ([4]; post-baseline, 24 weeks): No patient
- GGT, Mean (SD) at week 24 ([4]; week 24, 120 μg/kg/day, n=35): 460 (270) U/L
- Serum ALT, Mean (SD) at week 24 ([4]; week 24, 120 μg/kg/day, n=35): 245 (121) U/L
- Serum AST, Mean (SD) at week 24 ([4]; week 24, 120 μg/kg/day, n=35): 217 (131) U/L
- Total bilirubin, Mean (SD) at week 24 ([4]; week 24, 120 μg/kg/day, n=35): 53 (42) μmol/L
- Total cholesterol, Mean (SD) at week 24 ([4]; week 24, 120 μg/kg/day, n=35): 7 (2) mmol/L
- Autotaxin, Mean (SD) at week 24 [4, 7]: 1452 (440) ng/mL
- C4, Mean (SD) at week 24 [4, 7]: 19 (13) ng/mL
